From patent US20240041902A1, “COMPOSITIONS AND METHODS FOR THE TREATMENT OF UROTHELIAL CANCER” (The State of Israel, Ministry of Agriculture & Rural …, priority 2020, published 2024)
Like-named read-outs stand apart in the source and are kept apart here.

Assays:
Assay type in all cases: cell-based, human
T24 cells [1] = test: Cell migration scratch assay; conditions: sub-lethal: CBD 10, CBC+THC 8.6+1.4, MMC 4, CBC 10, THC 10 μg/mL; vs control
Procedure: The scratch area, indicated by the cells that migrated to the scratch at time x, was calculated as the percentage of the scratch area at time x from time 0: […]

T24 cells [2] = test: Bliss independence drug interaction model on T24 cell viability; conditions: for inhibition at 1 µg/mL / inhibition at 2 µg/mL / inhibition at 3 µg/mL / inhibition at 5 µg/mL / inhibition at 7.5 µg/mL / inhibition at 10 µg/mL / inhibition at 12.5 µg/mL: Homo sapiens, T-24
Procedure: (§1) Cell proliferation assay—XTT assay was carried out as described in [34], on T24 and HTB-9 cells. 1*10^4 cells/well were seeded in 96-wells plates, methanol was used as a vehicle control at the same concentration as the treatments. Mitomycin-C (MMC) was used as positive control. Cell viability was calculated relative to the vehicle control after subtracting blank.
Analysis of combined drug effects—Drug synergy was determined by the Bliss independence drug interaction model as described in [31], on T24 cells.

T24 cells [3] = test: XTT viability of T24 cells with or without CB1/CB2 inverse agonist, TRPV1/TRPV2 antagonist or TRPA1 blocker; conditions: CBD 13.8 μg/mL; inverse agonist 10 μM
Procedure: For quantification of phytocannabinoids by analytical HPLC, the standards were dissolved in methanol at various concentrations from 0-25 μg/mL.
as §1

T24 cells [4] = test: Apoptosis assay (Annexin V-FITC and PI, FACS); conditions: 48 hours; CBC+THC 17.2+2.8, CBD 15, MMC 8 μg/mL; control 46.2%
Procedure: Apoptosis assay and cell cycle analysis—T24 cells were treated with cannabis compounds or with methanol as a vehicle control. Cell cycle was determined at 24 h and apoptosis was determined at 48 h post-treatment. Staining and detection followed manufacturer instructions. Briefly, for the apoptosis assay, the MEBCYTO Apoptosis Kit with Annexin V-FITC and PI (MBL, Enco, 4700) was used. Cells were seeded in culture 6-wells plates, at density of 5×10^5 cells per well in McCoy's 5A (for T24 a cells) or in RPMI (for HTB-9 cells). The following day, media was replaced with new media containing treatment or methanol control. Cells were then incubated for 24 or 48 h at 37° C. in a humidified 5% CO2 95% air atmosphere. Following incubation, cells were harvested and collected separately. Tubes were centrifuged for 2 min at 900 g and cell pellets were resuspended and washed twice with 1 mL of PBS. The cells in each sample were resuspended in 85 μL of Annexin binding buffer. Cells were stained using 10 μL of Annexin V-FITC solution and 5 μL of propidium iodide (PI) working solution followed by 15 min incubation in the dark at room temperature. Then 400 μL of Annexin V binding buffer were added to each tube and flow cytometry was performed using a FORTESA flow cytometer (FACS). Cells were considered to be apoptotic if they were Annexin V+/PI− (early apoptotic) or Annexin V+/PI+ (late apoptotic). Live cells were defined as Annexin V−/PI−, and Annexin V−/PI+ as necrotic.
Cell proliferation assay—XTT assay was carried on T24 and HTB-9 cells. 1×10^4 cells/well were seeded in 96-well plates. […] MMC was used as a positive control. […] Absorbance was recorded by a Synergy 111 hybrid reader photometer (BioTek) at 490 nm with 650 nm of reference wavelength. […] The cell cycle was determined at 24 hours and apoptosis was determined at 48 hours following treatment. […] Then 200 μL of PBS was added to each tube and the cells were analyzed using FACS.

T24 cells [5] = test: Cytoskeleton (F-actin) staining, confocal; conditions: 24 hours; CBC+THC 8.6+1.4, CBD 10 μg/mL
Procedure: Cytoskeleton staining—T24 cell were seeded on glass bottom cell culture dishes and fixed with 3.7% formaldehyde solution and permeabilized with 0.1% Triton X-100 at room temperature. Fixed cells were blocked in Phosphate Buffered Saline (PBS) containing 1% bovine serum albumin. For actin and nuclear staining cells were incubated with EasyProbes ActinRed 555 Stain, and Hoechst, respectively. Image acquisition was effected using a Leica SP8 laser scanning microscope (Wetzlar, Germany), equipped with a 405 and 552 nm solid state lasers, HCX PL APO CS 10×/0.40 or HC PL APO CS 60×/1.2 water immersion objectives (Leica, Wetzlar, Germany) and Leica Application Suite X software (Wetzlar, Germany). Hoechst and ActinRed 555 emission signals were detected with PMT and HyD (hybrid) detectors in ranges of 415-490 and 565-660 nm, respectively. At least 3 images were captured from each slide, and experiments were repeated 4 times.

T24 cells [6] = test: Cell cycle analysis (PI staining, FACS); conditions: 24 hours; CBD 15 μg/mL; insignificant increase, control 17.4%
Procedure: For cell cycle analysis, cells were seeded in 6-wells culture plates at a concentration of 5×10^5 cells per well in McCoy (for T24 cells). The following day, media was replaced with new media containing treatments or methanol control. Cells were then incubated for 24 h at 37° C. in a humidified 5% CO2, 95% air atmosphere. Following 24 h of incubation, media was replaced with new media containing treatment or methanol control. Cells from each well were then harvested and collected separately and centrifuged for 2 min at 900 g. The cell pellet was washed once with 1 mL of PBS and fixed with 70% cold ethanol at 4° C. for at least 1 h. The fixed cells were pelleted out and washed twice with 1 mL of PBS. The cell pellet was then stained by re-suspending in 250 μL of PI solution (50 μg/mL) containing RNase A (100 μg/mL) for 30 min in the dark. Following, 200 μL of PBS were added to each tube and cells were analyzed using FACS.
Cell proliferation assay—XTT assay was carried on T24 and HTB-9 cells. 1×10^4 cells/well were seeded in 96-well plates. […] MMC was used as a positive control. XTT reagent (2,3,-bis (2-methoxy-4-nitro-5-sulfophenyl)-5-[(phenylamino)-carbonyl]-2H-tetrazolium inner salt) was added for 2 h at 37° C. in a humidified atmosphere of 5% CO2 to 95% air. Absorbance was recorded by a Synergy 111 hybrid reader photometer (BioTek) at 490 nm with 650 nm of reference wavelength. Cell survival (% r, viability) was estimated using the equation: % cell survival=(A490−A650) of treatment/(A490−A650) of solvent control×100. A490 and A650 are the absorbencies of the XTT colorimetric reaction. […] Apoptosis assay and cell cycle analysis—T24 cells were treated with cannabis compounds or with methanol as vehicle control. The cell cycle was determined at 24 hours and apoptosis was determined at 48 hours following treatment. Staining and detection followed the manufacturer's instructions. […] Then 200 μL of PBS was added to each tube and the cells were analyzed using FACS.

CB2 receptor (CNR2) = test: qRT-PCR of CB2 receptor RNA level in T24 cells; conditions: 6 hours; CBC+THC 11.2+1.8 μg/mL or CBD 9.2 μg/mL; relative to control, HPRT1 reference
Procedure: (§2) Quantitative real-time (qRT) PCR—qRT PCR was carried out as described in [34]. Briefly, T24 cells were treated with cannabis compounds or methanol as a vehicle control for 6 h. Cells were then harvested and total RNA was isolated and reverse-transcribed. The expression of each target gene was normalized to the expression of Hypoxanthine Phosphoribosyltransferase 1 (HPRT1; geneID 3251) mRNA as the 2^−ΔΔCt and is presented as the ratio of the target gene to HPRT1 mRNA, expressed as 2^−ΔCt, where Ct is the threshold cycle and ΔCt=Ct Target gene—Ct HPRT1. Experiments were repeated three times. The primers were: for CB1 (CNR1; geneID 1268) forward 5′-[…]-3′ (SEQ ID NO: 1) and reverse 5′-[…]-3′ (SEQ ID NO: 2); for CB2 (CNR2; geneID 1269) forward 5′-[…]-3′ (SEQ ID NO: 3) and reverse 5′-[…]-3′ (SEQ ID NO: 4).

CB1 receptor (CNR1) = test: qRT-PCR of CB1 receptor RNA level in T24 cells; conditions: 6 hours; CBC+THC 11.2+1.8 μg/mL or CBD 9.2 μg/mL; relative to control, HPRT1 reference
Procedure: as §2

## CCCCCc1cc(O)c2c(c1)OC(C)(CCC=C(C)C)C=C2 (stereo not drawn) [CBC, Cannabichromene]
T24 cells [1]
  cell migration into the scratch: reduced cell migration to a lesser extent than treatment with CBC+THC
T24 cells [2]; CBC 3.5 + THC 0 μg/ml
  Calculated (expected) value of cell survival inhibition: −0.2617
  Delta between observed and experimental values calculated according to Bliss model: 1.26E−10
  Experimental (observed) value of cell survival inhibition: −0.2617
T24 cells [2]; CBC 5.5 + THC 0 μg/ml
  Calculated (expected) value of cell survival inhibition: 0.003989
  Delta between observed and experimental values calculated according to Bliss model: 9.96E−11
  Experimental (observed) value of cell survival inhibition: 0.003989
T24 cells [2]; CBC 7.5 + THC 0 μg/ml
  Calculated (expected) value of cell survival inhibition: −0.05563
  Delta between observed and experimental values calculated according to Bliss model: 1.06E−10
  Experimental (observed) value of cell survival inhibition: −0.05563
T24 cells [2]; CBC 9.5 + THC 0 μg/ml
  Calculated (expected) value of cell survival inhibition: −0.061
  Delta between observed and experimental values calculated according to Bliss model: 1.06E−10
  Experimental (observed) value of cell survival inhibition: −0.061
T24 cells [2]; CBC 11.5 + THC 0 μg/ml
  Calculated (expected) value of cell survival inhibition: 0.2028
  Delta between observed and experimental values calculated according to Bliss model: 7.97E−11
  Experimental (observed) value of cell survival inhibition: 0.2028
T24 cells [2]; CBC 13.5 + THC 0 μg/ml
  Calculated (expected) value of cell survival inhibition: 0.5088
  Delta between observed and experimental values calculated according to Bliss model: 4.91E−11
  Experimental (observed) value of cell survival inhibition: 0.5088

## C=C(C)[C@@H]1CCC(C)=C[C@H]1c1c(O)cc(CCCCC)cc1O [CBD, Cannabidiol]
T24 cells [3]
  effect of CB1 and CB2 inverse agonists on CBD cytotoxicity: Only CB2 inverse agonist completely abolished cytotoxicity
T24 cells [1]
  cell migration into the scratch: marked and significant reduction in the ability of the cells to migrate into the scratch
T24 cells [4]
  cell apoptosis: 81.7%
T24 cells [5]
  F-actin filaments in the cell periphery: induced accumulation of F-actin filaments in the cell periphery
T24 cells [6]
  G2/M-phase cells: 38.3%
CB2 receptor (CNR2)
  CB2 receptor RNA level induction: 2.32 fold
CB1 receptor (CNR1)
  CB1 receptor RNA level induction: 1.35 fold

## CCCCCc1cc(O)c2c(c1)OC(C)(C)[C@@H]1CCC(C)=C[C@@H]21 [THC, Tetrahydrocannabinol]
T24 cells [1]
  cell migration into the scratch: had no effect on cell migration
T24 cells [2]; CBC 0 + THC 1 μg/ml
  Delta between observed and experimental values calculated according to Bliss model: 0
T24 cells [2]; CBC 0 + THC 2 μg/ml
  Delta between observed and experimental values calculated according to Bliss model: 0
T24 cells [2]; CBC 0 + THC 3 μg/ml
  Delta between observed and experimental values calculated according to Bliss model: 0
T24 cells [2]; CBC 0 + THC 5 μg/ml
  Delta between observed and experimental values calculated according to Bliss model: 0
T24 cells [2]; CBC 0 + THC 7.5 μg/ml
  Delta between observed and experimental values calculated according to Bliss model: 0
T24 cells [2]; CBC 0 + THC 10 μg/ml
  Delta between observed and experimental values calculated according to Bliss model: 0
T24 cells [2]; CBC 0 + THC 12.5 μg/ml
  Delta between observed and experimental values calculated according to Bliss model: 0
T24 cells [2]; CBC 0 + THC 1 μg/ml, read-out: Calculated (expected) value of cell survival inhibition
  inhibition at 1 µg/mL: -1.14%
T24 cells [2]; CBC 0 + THC 1 μg/ml, read-out: Experimental (observed) value of cell survival inhibition
  inhibition at 1 µg/mL: -1.14%
T24 cells [2]; CBC 0 + THC 2 μg/ml, read-out: Calculated (expected) value of cell survival inhibition
  inhibition at 2 µg/mL: -3.21%
T24 cells [2]; CBC 0 + THC 2 μg/ml, read-out: Experimental (observed) value of cell survival inhibition
  inhibition at 2 µg/mL: -3.21%
T24 cells [2]; CBC 0 + THC 3 μg/ml, read-out: Calculated (expected) value of cell survival inhibition
  inhibition at 3 µg/mL: -1.37%
T24 cells [2]; CBC 0 + THC 3 μg/ml, read-out: Experimental (observed) value of cell survival inhibition
  inhibition at 3 µg/mL: -1.37%
T24 cells [2]; CBC 0 + THC 5 μg/ml, read-out: Calculated (expected) value of cell survival inhibition
  inhibition at 5 µg/mL: 4.88%
T24 cells [2]; CBC 0 + THC 5 μg/ml, read-out: Experimental (observed) value of cell survival inhibition
  inhibition at 5 µg/mL: 4.88%
T24 cells [2]; CBC 0 + THC 7.5 μg/ml, read-out: Calculated (expected) value of cell survival inhibition
  inhibition at 7.5 µg/mL: -1.83%
T24 cells [2]; CBC 0 + THC 7.5 μg/ml, read-out: Experimental (observed) value of cell survival inhibition
  inhibition at 7.5 µg/mL: -1.83%
T24 cells [2]; CBC 0 + THC 10 μg/ml, read-out: Calculated (expected) value of cell survival inhibition
  inhibition at 10 µg/mL: 4.23%
T24 cells [2]; CBC 0 + THC 10 μg/ml, read-out: Experimental (observed) value of cell survival inhibition
  inhibition at 10 µg/mL: 4.23%
T24 cells [2]; CBC 0 + THC 12.5 μg/ml, read-out: Calculated (expected) value of cell survival inhibition
  inhibition at 12.5 µg/mL: 27%
T24 cells [2]; CBC 0 + THC 12.5 μg/ml, read-out: Experimental (observed) value of cell survival inhibition
  inhibition at 12.5 µg/mL: 27%
